This is an account of results in DBAASP.

Structures are written as SMILES. Converted amounts (≈) assume the structure as drawn.

Among the test systems are Escherichia coli W3110; Enterococcus faecalis; Staphylococcus aureus; Yersinia pestis KIM pYV; Escherichia coli; Escherichia coli KF111; Escherichia coli KF130; Escherichia coli UB1005; Candida tropicalis; Bacillus megaterium Bm11; Micrococcus luteus; Mammaliicoccus lentus.
Holding throughout (assay): ≥ marks a high value that may be exact or a test limit, other limits are often not marked, values filed in µg/mL are converted to µM
Experiment [1] concerns Pseudomonas aeruginosa PAK.
Experiment [2] relates to Streptococcus mitis ATCC 903.
Experiment [3] concerns Streptococcus sanguinis NY101.
Experiment [4] deals with Streptococcus mutans UA159.
Experiment [5] concerns Streptococcus gordonii Challis DL1.
Experiment [6] concerns Streptococcus sobrinus ATCC 33478.
Experiment [7] relates to Acinetobacter baumannii ATCC 19606.
For experiment [8], the system named is Escherichia coli ATCC 25922.
In experiment [9] the test system is Staphylococcus aureus ΔmprFpRBsyn.
Experiment [10] has as its system Bordetella bronchiseptica CUN 11844-99.
The test system of experiment [11] is Staphylococcus epidermidis ATCC 12228.
The test system of experiment [12] is Brucella abortus 9.49 (per-).
For experiment [13], the system named is Escherichia coli CMCC 44102.
Experiment [14] relates to Pseudomonas aeruginosa ATCC 27853.
Experiment [15] deals with Staphylococcus aureus CMCC 26003.
Experiment [16] has as its system Staphylococcus aureus ΔmprF.
In experiment [17] the test system is Staphylococcus aureus ATCC 43300.
In experiment [18] the test system is Pseudomonas aeruginosa CUN 4158-02.
The test system of experiment [19] is Candida albicans ATCC 90028.
Experiment [20] relates to Enterobacter cloacae HNTCC 53001.
Experiment [21] relates to Staphylococcus aureus NCTC 8325.
Experiment [22] deals with Klebsiella pneumoniae KK3 9904.
For experiment [23], the system named is Proteus mirabilis ATCC 25933.
The subject of experiment [24] is Enterococcus faecalis ATCC 29212.
The subject of experiment [25] is Staphylococcus aureus T7/20.
For experiment [26], the system named is Staphylococcus epidermidis RP62A.
The test system of experiment [27] is Staphylococcus epidermidis.
Experiment [28] concerns Salmonella enterica subsp. enterica serovar Typhimurium ATCC 14028s.
Experiment [29] deals with Pseudomonas aeruginosa H744.
Experiment [30] deals with Pseudomonas aeruginosa H374.
Experiment [31] deals with Pseudomonas aeruginosa K799.
Experiment [32] deals with Phytophthora nicotianae PG344.

Broadly, the MIC is the lowest concentration found to suppress growth. The low end stands for greater potency, the high end for weaker potency. As to `NCCCC[C@H](NC(=O)[C@H](Cc1c[nH]c2ccccc12)NC(=O)[C@@H](N)Cc1c[nH]c2ccccc12)C(=O)N[C@@H](CC(=O)O)C(=O)N[C@@H](Cc1c[nH]c2ccccc12)C(=O)N[C@@H](Cc1c[nH]c2ccccc12)C(=O)N[C@@H](CCC(=O)O)C(=O)N[C@@H](CCCN=C(N)N)C(=O)N[C@@H](Cc1c[nH]c2ccccc12)C(N)=O` [WWKDWWERW], the MIC (in [1]; with Escherichia coli W3110; in experiment [2]; in [3]; against Enterococcus faecalis; in [4]) was ≥ 338 µM in each case. The MIC was ≥ 338 µM in [5], ≥ 338 µM in [6] and > 338 µM in the experiment with Staphylococcus aureus.
On to `CC[C@H](C)[C@H](NC(=O)[C@H](CCCN=C(N)N)NC(=O)[C@H](CCCN=C(N)N)NC(=O)[C@H](CC(C)C)NC(=O)[C@H](Cc1ccccc1)NC(=O)[C@@H](NC(=O)[C@H](CCCN=C(N)N)NC(=O)[C@H](CCSC)NC(=O)[C@@H](NC(=O)[C@H](CCCCN)NC(=O)[C@H](CCCCN)NC(=O)[C@H](CS)NC(=O)[C@@H](NC(=O)CNC(=O)[C@H](CCCN=C(N)N)NC(=O)[C@H](CC(C)C)NC(=O)[C@@H](NC(=O)[C@@H](N)CCCCN)[C@@H](C)CC)C(C)C)[C@@H](C)CC)[C@@H](C)O)C(=O)N[C@@H](CO)C(=O)N[C@@H](CCCCN)C(=O)N[C@@H](CC(=O)O)C(=O)N[C@H](C(=O)N[C@@H](CC(C)C)C(=O)N[C@H](C(=O)NCC(=O)N[C@@H](CCCCN)C(=O)N[C@@H](CCCCN)C(N)=O)[C@@H](C)O)[C@@H](C)CC` [KILRGVCKKIMRTFLRRISKDILTGKK], for which the MIC in [7] was determined as 0.624 µM (≈ 2 µg/mL); in experiment [8], 5 µM (≈ 16 µg/mL); in experiment [9], 2.5 µM (≈ 8 µg/mL); in experiment [10] it was 1.25 µM (≈ 4 µg/mL); in [11], 2 µM (≈ 6.4 µg/mL); in experiment [12], 9.99 µM (≈ 32 µg/mL). In addition, the MIC is 4 µM (≈ 12.8 µg/mL) in [13]; ≥ 79.9 µM in the experiment with Yersinia pestis KIM pYV; 8 µM (≈ 25.6 µg/mL) in experiment [14]; 2 µM (≈ 6.4 µg/mL) in experiment [15]; 2.5 µM (≈ 8 µg/mL) in experiment [16]; 79.9 µM (≈ 256 µg/mL) in experiment [17]. Moreover, the MIC in experiment [18] worked out at 9.99 µM (≈ 32 µg/mL); against Staphylococcus aureus, 20 µM (≈ 64 µg/mL).
On to `CC[C@H](C)[C@H](NC(=O)CN)C(=O)N[C@@H](CCSC)C(=O)N[C@@H](CO)C(=O)N[C@@H](CC(C)C)C(=O)N[C@@H](Cc1ccccc1)C(=O)N[C@@H](CCCCN)C(=O)NCC(=O)N[C@H](C(=O)N[C@@H](CC(C)C)C(=O)N[C@@H](CCCCN)C(=O)N[C@H](C(=O)N[C@@H](C)C(=O)NCC(=O)N[C@@H](CCCCN)C(=O)N[C@@H](Cc1cnc[nH]1)C(=O)N[C@H](C(=O)N[C@@H](C)C(=O)NCC(=O)N[C@@H](CO)C(=O)N[C@@H](CC(C)C)C(=O)N[C@H](C(=O)N[C@@H](CC(=O)O)C(=O)N[C@@H](CCC(N)=O)C(=O)N[C@@H](CC(C)C)C(=O)N[C@@H](CCCCN)C(=O)N[C@H]1CSSC[C@@H](C(=O)O)NC(=O)CNC(=O)CNC(=O)[C@H]([C@@H](C)O)NC(=O)[C@H]([C@@H](C)CC)NC(=O)[C@H](CCCCN)NC1=O)C(C)C)C(C)C)[C@@H](C)O)C(C)C` [GIMSLFKGVLKTAGKHVAGSLVDQLKCKITGGC], for which the MIC in experiment [19] was ≥ 100 µM; in experiment [20], 6 µM (≈ 20.2 µg/mL); in experiment [21], 12.5 µM (≈ 42 µg/mL); in experiment [22], 6 µM (≈ 20.2 µg/mL); in experiment [8] it was 3 µM (≈ 10.1 µg/mL); in experiment [23], ≥ 100 µM. Also, the MIC was 25 µM (≈ 84 µg/mL) in [24], 25 µM (≈ 84 µg/mL) in experiment [25], 12.5 µM (≈ 42 µg/mL) in experiment [26] and 6 µM (≈ 20.2 µg/mL) in experiment [14].
With `CC[C@H](C)[C@H](NC(=O)[C@@H]1CCCN1C(=O)[C@H](CCCCN)NC(=O)[C@H](CC(C)C)NC(=O)[C@H](C)NC(=O)[C@@H](NC(=O)[C@H](Cc1cnc[nH]1)NC(=O)[C@H](Cc1ccccc1)NC(=O)[C@@H](NC(=O)[C@@H](NC(=O)[C@H](CCCN=C(N)N)NC(=O)[C@@H](NC(=O)[C@@H]1CCCN1C(=O)[C@H](CO)NC(=O)[C@H](CCCCN)NC(=O)[C@H](Cc1ccccc1)NC(=O)[C@@H](NC(=O)[C@H](CCCN=C(N)N)NC(=O)[C@H](CC(C)C)NC(=O)[C@H](Cc1ccccc1)NC(=O)[C@H](CO)NC(=O)[C@H](CCCCN)NC(=O)[C@H](Cc1c[nH]c2ccccc12)NC(=O)[C@@H](N)CCCCN)[C@@H](C)O)C(C)C)[C@@H](C)O)C(C)C)[C@@H](C)O)C(=O)N[C@@H](CO)C(=O)N[C@@H](CO)C(=O)O` [KWKSFLRTFKSPVRTVFHTALKPISS], the MIC was found to be 0.653 µM (≈ 2 µg/mL) against Escherichia coli; 5.22 µM (≈ 16 µg/mL) in experiment [27]; 1.31 µM (≈ 4 µg/mL) in the experiment on Escherichia coli KF111; 2.61 µM (≈ 8 µg/mL) in [28]; 1.31 µM (≈ 4 µg/mL) with Escherichia coli KF130; 0.653 µM (≈ 2 µg/mL) in the experiment on Escherichia coli UB1005. The MIC in experiment [29] was 5.22 µM (≈ 16 µg/mL); in experiment [30], 5.22 µM (≈ 16 µg/mL); in experiment [31] it was 5.22 µM (≈ 16 µg/mL); in the experiment with Staphylococcus aureus, > 20.9 µM.
Regarding `CC(C)C[C@H](N)C(=O)N[C@H](C(=O)N[C@@H](CCCN=C(N)N)C(=O)NCC(=O)N[C@H]1CSSC[C@@H](C(=O)N[C@@H](Cc2ccccc2)C(=O)N[C@H](C(=O)N[C@@H](CCCN=C(N)N)C(N)=O)C(C)C)NC(=O)[C@@H]2CCCN2C(=O)[C@H](CCCCN)NC(=O)[C@@H]2CCCN2C(=O)[C@@H]2CCCN2C(=O)[C@H](Cc2ccc(O)cc2)NC(=O)[C@H](CO)NC(=O)[C@H](CCCCN)NC(=O)[C@H]([C@@H](C)O)NC(=O)[C@H](Cc2c[nH]c3ccccc23)NC1=O)C(C)C` [LVRGCWTKSYPPKPCFVR], the MIC is 11 µM (≈ 23.5 µg/mL) in the experiment with Candida tropicalis; 20 µM (≈ 42.7 µg/mL) in the experiment with Bacillus megaterium Bm11; ≥ 75 µM in [32]; 10 µM (≈ 21.3 µg/mL) in the experiment with Micrococcus luteus; ≥ 50 µM with Mammaliicoccus lentus.
